Measurements as given in PMC2217675, “Quantitative High-Throughput Screen Identifies Inhibitors of the Schistosoma mansoni Redox Cascade” (PLoS Neglected Tropical Diseases, 2008).
Like-named read-outs stand apart in the source and are kept apart here.

How the values were obtained:
Test in all cases: biochemical
[1] = target: T1, S. mansoni TGR/Prx2 (Schistosoma mansoni, UniProt Q962Y6); type: biochemical
T1 sequence (Q962Y6 1-598): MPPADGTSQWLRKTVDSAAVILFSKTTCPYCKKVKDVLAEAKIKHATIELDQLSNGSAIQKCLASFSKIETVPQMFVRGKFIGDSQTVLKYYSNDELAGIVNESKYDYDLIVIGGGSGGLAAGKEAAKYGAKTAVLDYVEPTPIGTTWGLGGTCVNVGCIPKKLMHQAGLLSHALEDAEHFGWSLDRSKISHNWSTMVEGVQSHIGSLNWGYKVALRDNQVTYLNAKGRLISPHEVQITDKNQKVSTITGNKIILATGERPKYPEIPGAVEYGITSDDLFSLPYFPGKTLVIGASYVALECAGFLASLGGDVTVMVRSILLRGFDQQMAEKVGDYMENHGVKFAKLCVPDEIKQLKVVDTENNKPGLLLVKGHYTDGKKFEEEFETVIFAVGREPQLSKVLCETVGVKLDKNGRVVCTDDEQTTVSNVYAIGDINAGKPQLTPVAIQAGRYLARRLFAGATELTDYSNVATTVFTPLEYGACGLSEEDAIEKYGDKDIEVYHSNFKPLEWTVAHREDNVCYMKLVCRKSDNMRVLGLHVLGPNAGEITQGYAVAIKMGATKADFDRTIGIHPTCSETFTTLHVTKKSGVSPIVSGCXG

[2] = target: T2, TGR (Schistosoma mansoni, UniProt Q962Y6)
T2 sequence (Q962Y6 1-598): T1 sequence (Q962Y6 1-598)

[3] = target: T1, S. mansoni TGR/Prx2
[4] = initial high throughput screen of the collection, 25 nM TGR, 50 nM Prx2, read-out: qHTS IC50
[5] = DTNB as substrate, 15 nM TGR, read-out: TGR Assay IC50

In the case of `CC1COc2c(N3CCN(C)CC3)c(F)cc3c(=O)c(C(=O)O)cn1c23` (centres unmarked) [Ofloxacin, reference compound], the “activity in qHTS” value ([1]; primary screen) is reported as “apparent activator”.
`O=C([O-])[C@H]([O-])[C@@H]([O-])C(=O)[O-].O=C([O-])[C@H]([O-])[C@@H]([O-])C(=O)[O-].[K+].[K+].[Sb+3].[Sb+3]` [PAT, potassium antimonyl tartrate, reference compound] gave an IC50 ([1]; read-out: average IC50 of intraplate control titration) of 14 ± 8 nM.
In the case of `O=P(Nc1ccccc1F)(c1ccccc1)c1nc2ccccc2s1` (centres unmarked) [compound 2], the IC50 [2] is reported as 12000 nM and the IC50 [3] is reported as 23000 nM.
Compound `O=C(c1ccco1)c1no[n+]([O-])c1C(=O)c1ccco1` [compound 5] has an IC50 [2] of 25 nM and an IC50 [3] of 1500 nM.
For `Cc1nn(C)cc1C(=O)c1no[n+]([O-])c1C(=O)c1cn(C)nc1C` [compound 6], the IC50 [1, 4] was 24000 nM and the IC50 [2, 5] was 2000 nM.
Compound `O=C(c1cccs1)c1no[n+]([O-])c1C(=O)c1cccs1` [compound 7] has an IC50 [1, 4] of 9200 nM, an IC50 [2, 5] of 20 nM and an IC50 [3] of 1500 nM.
Work on `COc1ccc(C(=O)c2no[n+]([O-])c2C(=O)c2ccc(OC)cc2)cc1` [compound 8] yielded an IC50 [1, 4] of 10000 nM, an IC50 [2, 5] of 60 nM and an IC50 [3] of 4700 nM.
`N#Cc1c(-c2ccccc2)no[n+]1[O-]` [compound 9] was tested, and the IC50 [1] was 8700 nM and the IC50 [2] was 1800 nM.
Compound `CCOC(=O)C(C(=O)OCC)c1cc(Br)c2noc3c2c1C(=O)c1ccccc1-3` [compound 10] has an IC50 [1] of 530 nM, an IC50 [2] of 9000 nM and an IC50 [3] greater than 57000 nM.
`COC(=O)C(C(=O)OC)c1cc(Br)c2noc3c2c1C(=O)c1ccccc1-3` [compound 11] gave an IC50 [2] of 80 nM and an IC50 [3] of 120 nM.
In the case of `CCCCOc1cc(Br)c2noc3c2c1C(=O)c1ccccc1-3` [compound 12], the IC50 [2, 5] is reported as 150 nM and the IC50 ([3]; read-out: Confirmation IC50) is reported as 840 nM.
Compound `CC1=CC(=O)NP(=O)(Oc2ccc(Cl)cc2)N1` (centres unmarked) [compound 13] has an IC50 [2] of 550 nM and an IC50 [3] of 420 nM.
With `CC1=CC(=O)NP(=O)(Oc2ccccc2)N1` (centres unmarked) [compound 15] the IC50 [2] was 4000 nM and the IC50 [3] was 2000 nM.
Compound `CCOc1ccc(OP2(=O)NC(=O)C=C(C)N2)cc1` (centres unmarked) [compound 16] has an IC50 [2] of 600 nM and an IC50 [3] of 180 nM.
